PubChem BioAssay AID248 (DTP/NCI, 2004)
Inconclusive results and toxic doses are left out.

Test system: L1210 leukemia ip in BDF1 mice, survival T/C
Test: NCI In Vivo Anticancer Drug Screen. Data for tumor model L1210 Leukemia (intraperitoneal) in B6D2F1 (BDF1) mice
Conditions: endpoint: mean survival time, higher = longer survival
How it was run: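 Tumor cells were implanted, animals were treated, and survival was followed. The result divides the treated measurement by the vehicle-control measurement.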

[1] = dose: 12.5 mg/kg/injection, schedule: Q04DX003 (ip), vehicle: Klucel (hydroxypropylcellulose) (HPC)
[2] = dose: 25.0 mg/kg/injection, schedule: Q04DX003 (ip), vehicle: Klucel (hydroxypropylcellulose) (HPC)
[3] = dose: 50.0 mg/kg/injection, schedule: Q04DX003 (ip), vehicle: Klucel (hydroxypropylcellulose) (HPC)
[4] = dose: 100.0 mg/kg/injection, schedule: Q01DX001 (ip), vehicle: carboxymethylcellulose (CMC)
[5] = dose: 100.0 mg/kg/injection, schedule: Q04DX003 (ip), vehicle: saline
[6] = dose: 200.0 mg/kg/injection, schedule: Q04DX003 (ip), vehicle: saline
[7] = dose: 400.0 mg/kg/injection, schedule: Q04DX003 (ip), vehicle: saline
[8] = dose: 100.0 mg/kg/injection, schedule: Q01DX009 (ip), vehicle: Klucel (hydroxypropylcellulose) (HPC)
[9] = dose: 200.0 mg/kg/injection, schedule: Q01DX009 (ip), vehicle: Klucel (hydroxypropylcellulose) (HPC)
[10] = dose: 100.0 mg/kg/injection, schedule: Q01DX001 (ip), vehicle: saline
[11] = dose: 200.0 mg/kg/injection, schedule: Q01DX001 (ip), vehicle: saline
[12] = dose: 400.0 mg/kg/injection, schedule: Q01DX001 (ip), vehicle: saline
[13] = dose: 100.0 mg/kg/injection, schedule: Q04DX003 (ip), vehicle: Klucel (hydroxypropylcellulose) (HPC)
[14] = dose: 200.0 mg/kg/injection, schedule: Q04DX003 (ip), vehicle: Klucel (hydroxypropylcellulose) (HPC)
[15] = dose: 400.0 mg/kg/injection, schedule: Q04DX003 (ip), vehicle: Klucel (hydroxypropylcellulose) (HPC)
[16] = dose: 100.0 mg/kg/injection, schedule: Q01DX001 (ip), vehicle: Klucel (hydroxypropylcellulose) (HPC)

CC(O)C#CC(C)O (stereo unspecified)
T/C (dose: 12.5 mg/kg/injection, schedule: Q01DX009 (ip), vehicle: Klucel (hydroxypropylcellulose) (HPC)): 89 % of control
T/C [1]: 92 % of control
T/C (dose: 25.0 mg/kg/injection, schedule: Q01DX009 (ip), vehicle: Klucel (hydroxypropylcellulose) (HPC)): 102 % of control
T/C [2]: 96 % of control
T/C (dose: 50.0 mg/kg/injection, schedule: Q01DX009 (ip), vehicle: Klucel (hydroxypropylcellulose) (HPC)): 103 % of control
T/C [3]: 103 % of control

Cc1ccc(NC(=O)N(CCCl)N=O)cc1Cl
T/C (dose: 0.5 mg/kg/injection, schedule: Q01DX009 (ip), vehicle: carboxymethylcellulose (CMC)): 112 % of control
T/C (dose: 1.0 mg/kg/injection, schedule: Q01DX009 (ip), vehicle: carboxymethylcellulose (CMC)): 117 % of control
T/C (dose: 13.0 mg/kg/injection, schedule: Q01DX001 (ip), vehicle: carboxymethylcellulose (CMC)): 120 % of control
T/C (dose: 13.0 mg/kg/injection, schedule: Q01DX007 (ip), vehicle: carboxymethylcellulose (CMC)): 159 % of control
T/C (dose: 14.0 mg/kg/injection, schedule: Q01DX009 (ip), vehicle: carboxymethylcellulose (CMC)): 164 % of control
T/C (dose: 29.0 mg/kg/injection, schedule: Q01DX001 (ip), vehicle: other): 229 % of control
T/C (dose: 33.0 mg/kg/injection, schedule: Q01DX009 (ip), vehicle: carboxymethylcellulose (CMC)): 166 % of control
T/C (dose: 44.0 mg/kg/injection, schedule: Q01DX001 (ip), vehicle: other): 159 % of control
T/C (dose: 44.4 mg/kg/injection, schedule: Q01DX001 (ip), vehicle: carboxymethylcellulose (CMC)): 159 % of control
T/C (dose: 66.6 mg/kg/injection, schedule: Q01DX001 (ip), vehicle: carboxymethylcellulose (CMC)): 244 % of control
T/C [4]: 193 % of control
T/C (dose: 150.0 mg/kg/injection, schedule: Q01DX001 (ip), vehicle: carboxymethylcellulose (CMC)): 100 % of control

NC(=NCCCC(NCc1ccccc1)C(=O)O)N[N+](=O)[O-] (stereo unspecified)
T/C (dose: 75.0 mg/kg/injection, schedule: Q01DX009 (ip), vehicle: other): 107 % of control
T/C [5]: 100 % of control
T/C (dose: 150.0 mg/kg/injection, schedule: Q01DX009 (ip), vehicle: other): 111 % of control
T/C [6]: 102 % of control
T/C (dose: 300.0 mg/kg/injection, schedule: Q01DX009 (ip), vehicle: other): 107 % of control
T/C [7]: 104 % of control
T/C (dose: 600.0 mg/kg/injection, schedule: Q01DX009 (ip), vehicle: other): 105 % of control

CC1C(C)(C)P(=O)(OCCOP2(=O)C(C)(C)C(C)C2(C)C)C1(C)C (stereo unspecified)
T/C [5]: 100 % of control
T/C [6]: 94 % of control

Cc1cc(=O)[nH]c(N2C(=O)c3ccccc3C2=O)n1
T/C [2]: 99 % of control
T/C [3]: 102 % of control

Cc1ccc(NC(=O)Oc2cc(C)c(Cl)cc2C(C)C)cc1
T/C [8]: 98 % of control
T/C [9]: 96 % of control
T/C (dose: 400.0 mg/kg/injection, schedule: Q01DX009 (ip), vehicle: Klucel (hydroxypropylcellulose) (HPC)): 100 % of control

COc1ccc(C2(OC)Oc3ccccc3C(=O)C2(O)O)cc1 (stereo unspecified)
T/C (dose: 50.0 mg/kg/injection, schedule: Q01DX001 (ip), vehicle: saline): 101 % of control
T/C [10]: 104 % of control
T/C [11]: 101 % of control
T/C [12]: 104 % of control

CC(Cc1ccccc1)C(=O)c1ccccc1 (stereo unspecified)
T/C (dose: 100.0 mg/kg/injection, schedule: Q01DX001 (ip), vehicle: saline with Tween-80): 102 % of control
T/C (dose: 100.0 mg/kg/injection, schedule: Q01DX009 (ip), vehicle: saline with Tween-80): 102 % of control
T/C (dose: 200.0 mg/kg/injection, schedule: Q01DX001 (ip), vehicle: saline with Tween-80): 94 % of control
T/C (dose: 200.0 mg/kg/injection, schedule: Q01DX009 (ip), vehicle: saline with Tween-80): 97 % of control
T/C (dose: 400.0 mg/kg/injection, schedule: Q01DX001 (ip), vehicle: saline with Tween-80): 94 % of control
T/C (dose: 400.0 mg/kg/injection, schedule: Q01DX009 (ip), vehicle: saline with Tween-80): 98 % of control

Cc1cc2cc3c(=O)[nH]c(=O)[nH]c3nc2cc1C
T/C [10]: 93 % of control
T/C [11]: 102 % of control
T/C [12]: 91 % of control

NC(=O)NCCc1ccccc1
T/C [13]: 102 % of control
T/C [14]: 97 % of control
T/C [15]: 102 % of control

O=C(C[P+](c1ccccc1)(c1ccccc1)c1ccccc1)Nc1ccccc1
T/C (dose: 10.0 mg/kg/injection, schedule: Q01DX009 (ip), vehicle: Klucel (hydroxypropylcellulose) (HPC)): 100 % of control
T/C (dose: 20.0 mg/kg/injection, schedule: Q01DX009 (ip), vehicle: Klucel (hydroxypropylcellulose) (HPC)): 108 % of control
T/C (dose: 40.0 mg/kg/injection, schedule: Q01DX009 (ip), vehicle: Klucel (hydroxypropylcellulose) (HPC)): 100 % of control
T/C (dose: 75.0 mg/kg/injection, schedule: Q01DX009 (ip), vehicle: Klucel (hydroxypropylcellulose) (HPC)): 107 % of control

S=C1NCc2ccccc2N1
T/C [1]: 93 % of control
T/C [2]: 95 % of control
T/C [3]: 103 % of control
T/C [16]: 102 % of control

OCCNC(=S)SCc1ccccc1
T/C (dose: 100.0 mg/kg/injection, schedule: Q01DX009 (sc), vehicle: olive oil, sesame oil, peanut oil): 102 % of control
T/C (dose: 100.0 mg/kg/injection, schedule: Q04DX003 (sc), vehicle: olive oil, sesame oil, peanut oil): 96 % of control
T/C (dose: 200.0 mg/kg/injection, schedule: Q01DX009 (sc), vehicle: olive oil, sesame oil, peanut oil): 120 % of control
T/C (dose: 200.0 mg/kg/injection, schedule: Q04DX003 (sc), vehicle: olive oil, sesame oil, peanut oil): 98 % of control
T/C (dose: 400.0 mg/kg/injection, schedule: Q04DX003 (sc), vehicle: olive oil, sesame oil, peanut oil): 105 % of control

CNC(=S)N/N=C/c1ccc(N(C)CCC#N)cc1
T/C [8]: 96 % of control
T/C [9]: 93 % of control

CC(=O)OCC(CO)(CO)CO
T/C (dose: 100.0 mg/kg/injection, schedule: Q01DX009 (ip), vehicle: saline): 98 % of control
T/C [5]: 97 % of control
T/C (dose: 200.0 mg/kg/injection, schedule: Q01DX009 (ip), vehicle: saline): 106 % of control
T/C [6]: 105 % of control
T/C (dose: 400.0 mg/kg/injection, schedule: Q01DX009 (ip), vehicle: saline): 101 % of control
T/C [7]: 92 % of control

O=C(O)c1c(-c2ccccc2)[nH]c2cc(Cl)ccc2c1=O
T/C (dose: 50.0 mg/kg/injection, schedule: Q01DX001 (ip), vehicle: carboxymethylcellulose (CMC)): 113 % of control
T/C [4]: 113 % of control
T/C [8]: 112 % of control
T/C [13]: 104 % of control
T/C (dose: 200.0 mg/kg/injection, schedule: Q01DX001 (ip), vehicle: carboxymethylcellulose (CMC)): 107 % of control
T/C [9]: 106 % of control
T/C [14]: 107 % of control
T/C [15]: 104 % of control

CCCCCC1CCC(OC(C)=O)CC1 (stereo unspecified)
T/C [16]: 99 % of control
T/C [13]: 101 % of control
T/C (dose: 200.0 mg/kg/injection, schedule: Q01DX001 (ip), vehicle: Klucel (hydroxypropylcellulose) (HPC)): 96 % of control
T/C [14]: 95 % of control
T/C (dose: 400.0 mg/kg/injection, schedule: Q01DX001 (ip), vehicle: Klucel (hydroxypropylcellulose) (HPC)): 96 % of control
T/C [15]: 93 % of control

CC(C)C(C#N)(CCCCN1CCCCC1)c1cccc2ccccc12 (stereo unspecified)
T/C (dose: 100.0 mg/kg/injection, schedule: Q04DX003 (ip), vehicle: saline with Tween-80): 97 % of control
T/C (dose: 200.0 mg/kg/injection, schedule: Q04DX003 (ip), vehicle: saline with Tween-80): 93 % of control

C=C1C(=O)OC2C1C1CC1(C)C1CC(OC(C)=O)C(C)C21O (stereo unspecified)
T/C (dose: 50.0 mg/kg/injection, schedule: Q01DX001 (ip), vehicle: water): 103 % of control
T/C (dose: 100.0 mg/kg/injection, schedule: Q01DX001 (ip), vehicle: water): 92 % of control
T/C (dose: 200.0 mg/kg/injection, schedule: Q01DX001 (ip), vehicle: water): 103 % of control

COC(=O)CCN(c1ccccc1)S(=O)(=O)c1ccc(C)cc1
T/C [13]: 91 % of control
T/C [14]: 94 % of control
T/C [15]: 93 % of control
